Target: Protein kinase C alpha type (Homo sapiens, UniProt P17252)
Experiment: Displacement of [3H-20] phorbol 12,13-dibutyrate(PDBU) from recombinant Protein kinase C alpha

Row | Structure (SMILES) | Ki
1 | CCCCCCCCCCCCCCOC(=O)C[C@@]1(CCO)COC(=O)C1 | 18.4 µM
2 | CCCCCCCCCCCCCCOC(=O)C[C@@]1(CO)COC(=O)C1 | 16.9 µM
3 | CCCCCCCCCCCCCC(=O)O[C@@H](CO)[C@H]1CCC(=O)O1 | 28 µM
4 | CCCCCCCCCCCCCCOC(=O)CC1(CCO)COC(=O)C1 (single isomer, unassigned) | 24.1 µM

Now those with a lower Ki, led by results:

Row | Ki | Structure (SMILES)
5 | 10.4 µM | CCCCCCCCCCCCCCOC(=O)C[C@]1(CCO)COC(=O)C1
6 | 1.07 µM | CCCCCCCCCCCCCC(=O)O[C@@H](CO)[C@@H]1CCC(=O)O1

Source: ChEMBL document CHEMBL1129054, “Conformationally constrained analogues of diacylglycerol. 13. Protein kinase C ligands based on templates derived from 2,3-dideoxy-L-erythro(threo)-hexono-1,4-lactone and 2-deoxyapiolactone” (J Med Chem, 1996)
